Where a name gives a salt, the structure may show the parent alone. Read-outs that look alike come from different tables or passages of the source.
What was measured:
Assay in all cases: AK assay 384-well format, Prestwick library screening
E. faecium = format: cell-based, Enterococcus faecium; conditions: 50 μM final drug concentration; for fold induction at 50 µM: Enterococcus faecium, 3 h
[1] = tested on: S. aureus strain USA300-0114; format: cell-based, Staphylococcus aureus; conditions: 50 μM final drug concentration; for fold induction at 50 µM: Staphylococcus aureus, USA300, 3 h
K. pneumoniae = format: cell-based, Klebsiella pneumoniae; conditions: 50 μM final drug concentration; for fold induction at 50 µM: Klebsiella pneumoniae, 3 h
[2] = tested on: A. baumannii strain 98-37-09; format: cell-based, Acinetobacter baumannii; conditions: 50 μM final drug concentration; for fold induction at 50 µM: Acinetobacter baumannii, 983709, 3 h
P. aeruginosa = format: cell-based, Pseudomonas aeruginosa; conditions: 50 μM final drug concentration; for fold induction at 50 µM: Pseudomonas aeruginosa, 3 h
E. cloacae = format: cell-based, Enterobacter cloacae; conditions: 50 μM final drug concentration; for fold induction at 50 µM: Enterobacter cloacae, 3 h
E. coli = format: cell-based, Escherichia coli; conditions: 50 μM final drug concentration; for fold induction at 50 µM: Escherichia coli, 3 h
[3] = planktonic, cutoff for positive-scoring molecules 3-fold increase
[4] = cutoff for positive-scoring molecules 3-fold increase, read-out: AK-based Prestwick Library Screening Results, E. faecium (fold increase in extracellular AK activity)
[5] = cutoff for positive-scoring molecules 3-fold increase, read-out: AK-based Prestwick Library Screening Results, S. aureus (fold increase in extracellular AK activity)
[6] = cutoff for positive-scoring molecules 3-fold increase, read-out: AK-based Prestwick Library Screening Results, K. pneumoniae (fold increase in extracellular AK activity)
[7] = cutoff for positive-scoring molecules 3-fold increase, read-out: AK-based Prestwick Library Screening Results, A. baumannii (fold increase in extracellular AK activity)
[8] = cutoff for positive-scoring molecules 3-fold increase, read-out: AK-based Prestwick Library Screening Results, P. aeruginosa (fold increase in extracellular AK activity)
[9] = cutoff for positive-scoring molecules 3-fold increase, read-out: AK-based Prestwick Library Screening Results, E. cloacae (fold increase in extracellular AK activity)
[10] = cutoff for positive-scoring molecules 3-fold increase, read-out: AK-based Prestwick Library Screening Results, E. coli (fold increase in extracellular AK activity)
[11] = planktonic, cutoff for positive 3-fold increase, read-out: AK-based Prestwick Library Screening Results, E. faecium (fold increase in extracellular AK activity)
[12] = planktonic, cutoff for positive 3-fold increase, read-out: AK-based Prestwick Library Screening Results, S. aureus (fold increase in extracellular AK activity)
[13] = planktonic, cutoff for positive 3-fold increase, read-out: AK-based Prestwick Library Screening Results, K. pneumoniae (fold increase in extracellular AK activity)
[14] = planktonic, cutoff for positive 3-fold increase, read-out: AK-based Prestwick Library Screening Results, A. baumannii (fold increase in extracellular AK activity)
[15] = planktonic, cutoff for positive 3-fold increase, read-out: AK-based Prestwick Library Screening Results, P. aeruginosa (fold increase in extracellular AK activity)
[16] = planktonic, cutoff for positive 3-fold increase, read-out: AK-based Prestwick Library Screening Results, E. cloacae (fold increase in extracellular AK activity)
[17] = planktonic, cutoff for positive 3-fold increase, read-out: AK-based Prestwick Library Screening Results, E. coli (fold increase in extracellular AK activity)
[18] = 384-well format, cutoff for positive-scoring molecules 3-fold increase, read-out: AK-based Prestwick Library Screening Results, E. faecium (increase in extracellular AK activity)
[19] = 384-well format, cutoff for positive-scoring molecules 3-fold increase, read-out: AK-based Prestwick Library Screening Results, S. aureus (increase in extracellular AK activity)
[20] = 384-well format, cutoff for positive-scoring molecules 3-fold increase, read-out: AK-based Prestwick Library Screening Results, K. pneumoniae (increase in extracellular AK activity)
[21] = 384-well format, cutoff for positive-scoring molecules 3-fold increase, read-out: AK-based Prestwick Library Screening Results, A. baumannii (increase in extracellular AK activity)
[22] = 384-well format, cutoff for positive-scoring molecules 3-fold increase, read-out: AK-based Prestwick Library Screening Results, P. aeruginosa (increase in extracellular AK activity)
[23] = 384-well format, cutoff for positive-scoring molecules 3-fold increase, read-out: AK-based Prestwick Library Screening Results, E. cloacae (increase in extracellular AK activity)
[24] = 384-well format, cutoff for positive-scoring molecules 3-fold increase, read-out: AK-based Prestwick Library Screening Results, E. coli (increase in extracellular AK activity)

CN(C)[C@@H]1C(O)=C(C(N)=O)C(=O)[C@@]2(O)C(O)=C3C(=O)c4c(O)cccc4[C@@](C)(O)[C@H]3C[C@@H]12 [Tetracycline hydrochloride]
fold induction at 50 µM (E. faecium; planktonic E. faecium, 384-well, cutoff for positive-scoring molecules 3-fold increase, read-out: AK-based Prestwick Library Screening Results: E. faecium (increase in extracellular AK activity)): 1 | fold induction at 50 µM ([1]; planktonic S. aureus, 384-well, cutoff for positive-scoring molecules 3-fold increase, read-out: AK-based Prestwick Library Screening Results: S. aureus (increase in extracellular AK activity)): 9.2 | fold induction at 50 µM (K. pneumoniae; planktonic K. pneumoniae, 384-well, cutoff for positive-scoring molecules 3-fold increase, read-out: AK-based Prestwick Library Screening Results: K. pneumoniae (increase in extracellular AK activity)): 0.2 | fold induction at 50 µM ([2]; planktonic A. baumannii, 384-well, cutoff for positive-scoring molecules 3-fold increase, read-out: AK-based Prestwick Library Screening Results: A. baumannii (increase in extracellular AK activity)): 4.4 | fold induction at 50 µM (P. aeruginosa; planktonic P. aeruginosa, 384-well, cutoff for positive-scoring molecules 3-fold increase, read-out: AK-based Prestwick Library Screening Results: P. aeruginosa (increase in extracellular AK activity)): 0.5 | fold induction at 50 µM (E. cloacae; planktonic E. cloacae, 384-well, cutoff for positive-scoring molecules 3-fold increase, read-out: AK-based Prestwick Library Screening Results: E. cloacae (increase in extracellular AK activity)): 1 | fold induction at 50 µM (E. coli; planktonic E. coli, 384-well, cutoff for positive-scoring molecules 3-fold increase, read-out: AK-based Prestwick Library Screening Results: E. coli (increase in extracellular AK activity)): 0.8

O.O=C1C(O)=C(O)C(=O)C(O)=C1O [Tetrahydroxy-1,4-quinone monohydrate]
AK-based Prestwick Library Screening Results, E. faecium (fold increase in extracellular AK activity) (E. faecium; [3]): 0.9 | AK-based Prestwick Library Screening Results, S. aureus (fold increase in extracellular AK activity) [1, 3]: 0.8 | AK-based Prestwick Library Screening Results, K. pneumoniae (fold increase in extracellular AK activity) (K. pneumoniae; [3]): 0.8 | AK-based Prestwick Library Screening Results, A. baumannii (fold increase in extracellular AK activity) [2, 3]: 1.1 | AK-based Prestwick Library Screening Results, P. aeruginosa (fold increase in extracellular AK activity) (P. aeruginosa; [3]): 0.9 | AK-based Prestwick Library Screening Results, E. cloacae (fold increase in extracellular AK activity) (E. cloacae; [3]): 1.3 | AK-based Prestwick Library Screening Results, E. coli (fold increase in extracellular AK activity) (E. coli; [3]): 0.9

c1ccc2c(c1)CCCC2C1=NCCN1 (stereo not shown) [Tetrahydrozoline hydrochloride]
fold induction at 50 µM (E. faecium; [4]): 1 | fold induction at 50 µM [1, 5]: 1.1 | fold induction at 50 µM (K. pneumoniae; [6]): 0.9 | fold induction at 50 µM [2, 7]: 1 | fold induction at 50 µM (P. aeruginosa; [8]): 1 | fold induction at 50 µM (E. cloacae; [9]): 1.4 | fold induction at 50 µM (E. coli; [10]): 1.4

c1ccc(C2CN3CCSC3=N2)cc1 (stereo not shown) [Tetramisole hydrochloride]
fold induction at 50 µM (E. faecium; [11]): 1 | fold induction at 50 µM [1, 12]: 1.1 | fold induction at 50 µM (K. pneumoniae; [13]): 1.1 | fold induction at 50 µM [2, 14]: 1.4 | fold induction at 50 µM (P. aeruginosa; [15]): 1.2 | fold induction at 50 µM (E. cloacae; [16]): 1.4 | fold induction at 50 µM (E. coli; [17]): 1.3

COc1ccc2cc1Oc1ccc(cc1)C[C@H]1c3cc(c(OC)cc3CCN1C)Oc1c(OC)c(OC)cc3c1[C@H](C2)N(C)CC3 [Tetrandrine]
fold induction at 50 µM (E. faecium; planktonic, cutoff for positive-scoring molecules 3-fold increase, read-out: AK-based Prestwick Library Screening Results, E. faecium (fold increase in extracellular AK activity)): 1 | fold induction at 50 µM ([1]; planktonic, cutoff for positive-scoring molecules 3-fold increase, read-out: AK-based Prestwick Library Screening Results, S. aureus (fold increase in extracellular AK activity)): 0.9 | fold induction at 50 µM (K. pneumoniae; planktonic, cutoff for positive-scoring molecules 3-fold increase, read-out: AK-based Prestwick Library Screening Results, K. pneumoniae (fold increase in extracellular AK activity)): 0.9 | fold induction at 50 µM ([2]; planktonic, cutoff for positive-scoring molecules 3-fold increase, read-out: AK-based Prestwick Library Screening Results, A. baumannii (fold increase in extracellular AK activity)): 0.9 | fold induction at 50 µM (P. aeruginosa; planktonic, cutoff for positive-scoring molecules 3-fold increase, read-out: AK-based Prestwick Library Screening Results, P. aeruginosa (fold increase in extracellular AK activity)): 0.9 | fold induction at 50 µM (E. cloacae; planktonic, cutoff for positive-scoring molecules 3-fold increase, read-out: AK-based Prestwick Library Screening Results, E. cloacae (fold increase in extracellular AK activity)): 1.1 | fold induction at 50 µM (E. coli; planktonic, cutoff for positive-scoring molecules 3-fold increase, read-out: AK-based Prestwick Library Screening Results, E. coli (fold increase in extracellular AK activity)): 0.9

O=C1CCC(N2C(=O)c3ccccc3C2=O)C(=O)N1 (stereo not shown) [Thalidomide]
fold induction at 50 µM (E. faecium; [18]): 1 | fold induction at 50 µM [1, 19]: 1 | fold induction at 50 µM (K. pneumoniae; [20]): 0.8 | fold induction at 50 µM [2, 21]: 0.9 | fold induction at 50 µM (P. aeruginosa; [22]): 0.9 | fold induction at 50 µM (E. cloacae; [23]): 1.1 | fold induction at 50 µM (E. coli; [24]): 1

Cn1cnc2c1c(=O)[nH]c(=O)n2C [Theobromine]
fold induction at 50 µM (E. faecium; [4]): 1.1 | fold induction at 50 µM [1, 5]: 1.3 | fold induction at 50 µM (K. pneumoniae; [6]): 1.2 | fold induction at 50 µM [2, 7]: 1.1 | fold induction at 50 µM (P. aeruginosa; [8]): 1.2 | fold induction at 50 µM (E. cloacae; [9]): 1.4 | fold induction at 50 µM (E. coli; [10]): 1.2

Cn1c(=O)c2[nH]cnc2n(C)c1=O [Theophylline monohydrate]
fold induction at 50 µM (E. faecium; […], read-out: AK-based Prestwick Library Screening Results, E. faecium (fold increase in extracellular AK activity)): 1 | fold induction at 50 µM ([1]; […], read-out: AK-based Prestwick Library Screening Results, S. aureus (fold increase in extracellular AK activity)): 1.3 | fold induction at 50 µM (K. pneumoniae; […], read-out: AK-based Prestwick Library Screening Results, K. pneumoniae (fold increase in extracellular AK activity)): 1.1 | fold induction at 50 µM ([2]; […], read-out: AK-based Prestwick Library Screening Results, A. baumannii (fold increase in extracellular AK activity)): 1.2 | fold induction at 50 µM (P. aeruginosa; […], read-out: AK-based Prestwick Library Screening Results, P. aeruginosa (fold increase in extracellular AK activity)): 1.2 | fold induction at 50 µM (E. cloacae; […], read-out: AK-based Prestwick Library Screening Results, E. cloacae (fold increase in extracellular AK activity)): 1.3 | fold induction at 50 µM (E. coli; […], read-out: AK-based Prestwick Library Screening Results, E. coli (fold increase in extracellular AK activity)): 1.2

Cc1ncc(C[n+]2csc(CCO)c2C)c(N)n1 [Thiamine hydrochloride]
fold induction at 50 µM (E. faecium; [11]): 1 | fold induction at 50 µM [1, 12]: 1.1 | fold induction at 50 µM (K. pneumoniae; [13]): 1.4 | fold induction at 50 µM [2, 14]: 1.3 | fold induction at 50 µM (P. aeruginosa; [15]): 1.3 | fold induction at 50 µM (E. cloacae; [16]): 1.3 | fold induction at 50 µM (E. coli; [17]): 1.4

CS(=O)(=O)c1ccc([C@@H](O)[C@@H](CO)NC(=O)C(Cl)Cl)cc1 [Thiamphenicol]
fold induction at 50 µM (E. faecium; [18]): 0.9 | fold induction at 50 µM [1, 19]: 8.7 | fold induction at 50 µM (K. pneumoniae; [20]): 0.4 | fold induction at 50 µM [2, 21]: 0.9 | fold induction at 50 µM (P. aeruginosa; [22]): 0.8 | fold induction at 50 µM (E. cloacae; [23]): 1.4 | fold induction at 50 µM (E. coli; [24]): 0.9

— patent publication US10004701B2, “Methods and compositions for treating infection” (UNIVERSITY OF ROCHESTER, priority 2012, dated 2018)
